Data as given in patent US10765114B2, “4-amino-6-(pyridyl and 2-substitutedphenyl)-picolinates and 6-amino-2-(pyridyl and 2-substitutedphenyl)-pyrimidine-4-carboxylates and their use as herbicides” (Dow AgroSciences LLC, priority 2013, dated 2020).

Tests used:
Assay in all cases: Post-Emergent Test III (Wheat and Barley)
KCHSC (kochia) = assay type: in vivo, Kochia scoparia; settings: for pest or weed control at 17.5 g/ha / pest or weed control at 35 g/ha / pest or weed control at 70 g/ha: Bassia scoparia, post-emergence, 504 h, KCHSC kochia (Kochia scoparia), post-emergent, read-out: Visual Growth Reduction (%) 21 Days After Application, KCHSC; for pest or weed control at 17.5 g/ha: 17.5 g ai/ha; for pest or weed control at 35 g/ha: 35 g ai/ha; for pest or weed control at 70 g/ha: 70 g ai/ha; for GR50, KCHSC: growth reduction of 50%; for GR50, KCHSC / GR80, KCHSC / GR90, KCHSC: probit analysis, 21 days; for GR80, KCHSC: growth reduction of 80%; for GR90, KCHSC: growth reduction of 90%
Experimental: (§1) Seeds of the desired test plant species were planted in Sun Gro MetroMix® 306 planting mixture, which typically has a pH of 6.0 to 6.8 and an organic matter content of about 30 percent, in plastic pots with a surface area of 103.2 square centimeters (cm^2). When required to ensure good germination and healthy plants, a fungicide treatment and/or other chemical or physical treatment was applied. The plants were grown for 7-36 days in a greenhouse with an approximate 14 h photoperiod which was maintained at about 18° C. during the day and 17° C. during the night. Nutrients and water were added on a regular basis and supplemental lighting was provided with overhead metal halide 1000-Watt lamps as necessary. The plants were employed for testing when they reached the second or third true leaf stage.
(§2) A weighed amount, determined by the highest rate to be tested, of each test compound was placed in a 25 mL glass vial and was dissolved in 4 mL of a 97:3 v/v mixture of acetone and DMSO to obtain concentrated stock solutions. […] The concentrated stock solutions obtained were diluted with 20 mL of an aqueous mixture containing acetone, water, isopropyl alcohol, DMSO, Agri-Dex crop oil concentrate, and X-77 surfactant in a 48:39:10:1.5:1.5:0.02 v/v ratio to obtain spray solutions containing the highest application rates. Additional application rates were obtained by serial dilution of 12 mL of the high rate solution into a solution containing 2 mL of 97:3 v/v mixture of acetone and DMSO and 10 mL of an aqueous mixture containing acetone, water, isopropyl alcohol, DMSO, Agri-Dex crop oil concentrate, and X-77 surfactant in a 48:39:10:1.5:1.5:0.02 v/v ratio to obtain ½×, ¼×, ⅛× and 1/16× rates of the high rate. Compound requirements are based upon a 12 mL application volume at a rate of 187 liters per hectare (L/ha). Formulated compounds were applied to the plant material with an overhead Mandel track sprayer equipped with 8002E nozzles calibrated to deliver 187 L/ha over an application area of 0.503 square meters at a spray height of 18 inches (43 cm) above the average plant canopy height. Control plants were sprayed in the same manner with the solvent blank.
(§3) The treated plants and control plants were placed in a greenhouse as described above and watered by subirrigation to prevent wash-off of the test compounds. After 21 dAYS, the condition of the test plants as compared with that of the untreated plants was determined visually and scored on a scale of 0 to 100 percent where 0 corresponds to no injury and 100 corresponds to complete kill and presented as indicated in Table A.
(§4) By applying the well-accepted probit analysis as described by J. Berkson in Journal of the American Statistical Society, 48, 565 (1953) and by D. Finney in “Probit Analysis” Cambridge University Press (1952), herbicidal injury of a specific compound at various rates can be used to calculate GR10, GR20, GR50, GR80 and GR90 values, which are defined as growth reduction factors that correspond to the effective dose of herbicide required to provide plant growth reduction (GR) of 10 percent, 20 percent, 50 percent, 80 percent and 90 percent, respectively. Probit analysis was applied to data collected from multiple dose rates of individual compounds utilizing the procedures explained in the following examples. The analysis of those dose rates is captured in the following tables.

[1] = system: LAMPU (purple deadnettle); assay type: in vivo, Lamium purpureum; settings: for Visual Growth Reduction (%) 21 Days After Application, LAMPU: LAMPU purple deadnettle (Lamium purpureum), post-emergent; for GR50, LAMPU: growth reduction of 50%; for GR50, LAMPU / GR80, LAMPU / GR90, LAMPU: probit analysis, 21 days; for GR80, LAMPU: growth reduction of 80%; for GR90, LAMPU: growth reduction of 90%
Experimental: as §1, §2, §3, §4

POLCO (wild buckwheat) = assay type: in vivo, Polygonum convolvulus; settings: for Visual Growth Reduction (%) 21 Days After Application, POLCO: POLCO wild buckwheat (Polygonum convolvulus), post-emergent; for GR50, POLCO: growth reduction of 50%; for GR50, POLCO / GR80, POLCO / GR90, POLCO: probit analysis, 21 days; for GR80, POLCO: growth reduction of 80%; for GR90, POLCO: growth reduction of 90%
Experimental: as §1, §2, §3, §4

BRSSS = assay type: in vivo; settings: for Visual Growth Reduction (%) 21 Days After Application, BRSSS: BRSSS oil seed rape (Brassica napus), post-emergent; for GR50, BRSSS: growth reduction of 50%; for GR50, BRSSS / GR80, BRSSS / GR90, BRSSS: probit analysis, 21 days; for GR80, BRSSS: growth reduction of 80%; for GR90, BRSSS: growth reduction of 90%
Experimental: as §1, §2, §3, §4

HORSS = assay type: in vivo; settings: crop; for Visual Growth Reduction (%) 21 Days After Application, HORSS: HORSS barley (Hordeum vulgare), post-emergent; for GR10, HORSS / GR20, HORSS: HORSS barley, probit analysis, 21 days; for GR10, HORSS: growth reduction of 10%; for GR20, HORSS: growth reduction of 20%
Experimental: as §1, §2, §3, §4

TRZSS = assay type: in vivo; settings: crop; for Visual Growth Reduction (%) 21 Days After Application, TRZSS: TRZSS wheat (Triticum aestivum), post-emergent; for GR10, TRZSS / GR20, TRZSS: TRZSS wheat, probit analysis, 21 days; for GR10, TRZSS: growth reduction of 10%; for GR20, TRZSS: growth reduction of 20%
Experimental: as §1, §2, §3, §4

SASKR (Russian thistle) = assay type: in vivo, Salsola tragus; settings: for Visual Growth Reduction (%) 21 Days After Application, SASKR: SASKR Russian thistle (Salsola iberica), post-emergent; for GR50, SASKR: growth reduction of 50%; for GR50, SASKR / GR80, SASKR / GR90, SASKR: probit analysis, 21 days; for GR80, SASKR: growth reduction of 80%; for GR90, SASKR: growth reduction of 90%
Experimental: as §1, §2, §3, §4

Compound | pest or weed control at 17.5 g/ha (KCHSC (kochia)) [%] | pest or weed control at 35 g/ha (KCHSC (kochia)) [%] | pest or weed control at 70 g/ha (KCHSC (kochia)) [%] | GR50, KCHSC (KCHSC (kochia)) [g ai/ha] | GR80, KCHSC (KCHSC (kochia)) [g ai/ha] | GR90, KCHSC (KCHSC (kochia)) [g ai/ha] | Visual Growth Reduction (%) 21 Days After Application, LAMPU ([1]; 17.5 g ai/ha) | Visual Growth Reduction (%) 21 Days After Application, LAMPU ([1]; 35 g ai/ha) | Visual Growth Reduction (%) 21 Days After Application, LAMPU ([1]; 70 g ai/ha) | GR50, LAMPU [1] [g ai/ha] | GR80, LAMPU [1] [g ai/ha] | GR90, LAMPU [1] [g ai/ha] | Visual Growth Reduction (%) 21 Days After Application, POLCO (POLCO (wild buckwheat); 17.5 g ai/ha) | Visual Growth Reduction (%) 21 Days After Application, POLCO (POLCO (wild buckwheat); 35 g ai/ha) | Visual Growth Reduction (%) 21 Days After Application, POLCO (POLCO (wild buckwheat); 70 g ai/ha) | GR50, POLCO (POLCO (wild buckwheat)) [g ai/ha] | GR80, POLCO (POLCO (wild buckwheat)) [g ai/ha] | GR90, POLCO (POLCO (wild buckwheat)) [g ai/ha] | Visual Growth Reduction (%) 21 Days After Application, BRSSS (BRSSS; 17.5 g ai/ha) | Visual Growth Reduction (%) 21 Days After Application, BRSSS (BRSSS; 35 g ai/ha) | also measured
COC(=O)c1nc(-c2ccc(Br)nc2)c(F)c(N)c1Cl [Compound 22, methyl 4-amino-6′-bromo-5-chloro-3-fluoro-[2,3′-bipyridine]-6-carboxylate] | 95 to 100 | 95 to 100 | 95 to 100 | 3 | 8 | 14 | A (95-100) | A (95-100) | A (95-100) | 1 | 6 | 11 | E (45-59) | E (45-59) | D (60-74) | 26 | >140 | >140 | D (60-74) | B (85-94) | Visual Growth Reduction (%) 21 Days After Application, BRSSS (BRSSS; 70 g ai/ha): B (85-94); GR50, BRSSS (BRSSS): 4 g ai/ha; GR80, BRSSS (BRSSS): 20 g ai/ha; GR90, BRSSS (BRSSS): 46 g ai/ha; Visual Growth Reduction (%) 21 Days After Application, HORSS (HORSS; 17.5 g ai/ha): B (85-94); Visual Growth Reduction (%) 21 Days After Application, HORSS (HORSS; 35 g ai/ha): B (85-94); Visual Growth Reduction (%) 21 Days After Application, HORSS (HORSS; 70 g ai/ha): A (95-100); GR10, HORSS (HORSS): 1 g ai/ha; GR20, HORSS (HORSS): 1 g ai/ha; Visual Growth Reduction (%) 21 Days After Application, TRZSS (TRZSS; 17.5 g ai/ha): C (75-84); Visual Growth Reduction (%) 21 Days After Application, TRZSS (TRZSS; 35 g ai/ha): B (85-94); Visual Growth Reduction (%) 21 Days After Application, TRZSS (TRZSS; 70 g ai/ha): B (85-94); GR10, TRZSS (TRZSS): 1 g ai/ha; GR20, TRZSS (TRZSS): 1 g ai/ha; Visual Growth Reduction (%) 21 Days After Application, SASKR (SASKR (Russian thistle); 17.5 g ai/ha): C (75-84); Visual Growth Reduction (%) 21 Days After Application, SASKR (SASKR (Russian thistle); 35 g ai/ha): C (75-84); Visual Growth Reduction (%) 21 Days After Application, SASKR (SASKR (Russian thistle); 70 g ai/ha): B (85-94); GR50, SASKR (SASKR (Russian thistle)): 5 g ai/ha; GR80, SASKR (SASKR (Russian thistle)): 36 g ai/ha; GR90, SASKR (SASKR (Russian thistle)): 95 g ai/ha
Cc1c(-c2cc(N)c(Cl)c(C(=O)O)n2)ccc(Cl)c1Cl [Compound 28] | 75 to 84 | 75 to 84 | 95 to 100 | 3 | 21 | 54 | A (95-100) | A (95-100) | A (95-100) | 1 | 1 | 1 | A (95-100) | A (95-100) | A (95-100) | 1 | 1 | 4 | B (85-94) | B (85-94) | Visual Growth Reduction (%) 21 Days After Application, BRSSS (BRSSS; 70 g ai/ha): A (95-100); GR50, BRSSS (BRSSS): 1 g ai/ha; GR80, BRSSS (BRSSS): 5 g ai/ha; GR90, BRSSS (BRSSS): 18 g ai/ha; Visual Growth Reduction (%) 21 Days After Application, HORSS (HORSS; 17.5 g ai/ha): G (0-29); Visual Growth Reduction (%) 21 Days After Application, HORSS (HORSS; 35 g ai/ha): F (30-44); Visual Growth Reduction (%) 21 Days After Application, HORSS (HORSS; 70 g ai/ha): F (30-44); GR10, HORSS (HORSS): 3 g ai/ha; GR20, HORSS (HORSS): 13 g ai/ha; Visual Growth Reduction (%) 21 Days After Application, TRZSS (TRZSS; 17.5 g ai/ha): G (0-29); Visual Growth Reduction (%) 21 Days After Application, TRZSS (TRZSS; 35 g ai/ha): F (30-44); Visual Growth Reduction (%) 21 Days After Application, TRZSS (TRZSS; 70 g ai/ha): E (45-59); GR10, TRZSS (TRZSS): 16 g ai/ha; GR20, TRZSS (TRZSS): 25 g ai/ha; Visual Growth Reduction (%) 21 Days After Application, SASKR (SASKR (Russian thistle); 17.5 g ai/ha): C (75-84); Visual Growth Reduction (%) 21 Days After Application, SASKR (SASKR (Russian thistle); 35 g ai/ha): B (85-94); Visual Growth Reduction (%) 21 Days After Application, SASKR (SASKR (Russian thistle); 70 g ai/ha): A (95-100); GR50, SASKR (SASKR (Russian thistle)): 2 g ai/ha; GR80, SASKR (SASKR (Russian thistle)): 17 g ai/ha; GR90, SASKR (SASKR (Russian thistle)): 47 g ai/ha
